The results in this text go back to patent publication US9980943B2, “Methods of treating muscular dystrophy” (BOARD OF REGENTS OF THE NEVADA SYSTEM OF HIGHER EDUCATION, …, priority 2013, dated 2018).

Like-named read-outs stand apart in the source and are kept apart here.

Common to all, as to assay type: cell-based, mouse
The test system of experiment [1] is α7 integrin (LacZ reporter in α7+/LacZ myotubes). Briefly: Myotube α7 integrin FDG assay (Burkin assay in myotubes, 96-well). The note with it: myotubes; for fold induction at 0.5 µM / fold induction at 1 µM / fold induction at 5 µM / fold induction at 10 µM / fold induction at 20 µM / fold induction at 40 µM: Mus musculus, Myotube.
For experiment [2], the system named is β-galactosidase in CMV-LacZ C2C12 myotubes. Briefly: CMV-LacZ secondary screen in C2C12 myotubes (β-Gal stabilizing assay). Particulars: for fold induction at 5 µM / fold induction at 10 µM / fold induction at 20 µM / fold induction at 40 µM: Mus musculus; for fold induction at 5 µM: C2C12, read-out: CMV-LACZ in Myotubes, signal relative to DMSO, 5 uM; for fold induction at 5 µM / fold induction at 10 µM / fold induction at 20 µM / fold induction at 40 µM / CMV-LACZ in Myotubes, signal relative to DMSO: C2C12 CMV-LacZ myotubes, fold relative to DMSO; for fold induction at 10 µM: C2C12, read-out: CMV-LACZ in Myotubes, signal relative to DMSO, 10 uM; for fold induction at 20 µM: C2C12, read-out: CMV-LACZ in Myotubes, signal relative to DMSO, 20 uM; for fold induction at 40 µM: C2C12, read-out: CMV-LACZ in Myotubes, signal relative to DMSO, 40 uM; for CMV-LACZ in Myotubes (β-galactosidase activity relative to DMSO): CMV-LacZ C2C12 myotubes, 96-well format. In short, it runs like this:
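Stable CMV-LacZ C2C12 clone; six-point curve 0.5–40 μM; duplicates.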

For experiment [3], the system named is α7 integrin (LacZ reporter in α7βgal+/− myoblasts). Kind of experiment: Myoblast α7+/LacZ integrin FDG assay (Burkin assay in myoblasts, 96-well). Particulars: α7+/LacZ myoblasts, 96-well; for fold induction at 0.5 µM / fold induction at 1 µM / fold induction at 5 µM / fold induction at 10 µM / fold induction at 20 µM / fold induction at 40 µM: Mus musculus, Myoblast, 48 h.

As for `COc1cccc(NC(=O)c2ccc3c(c2)CCCC3)c1` [MLS000879190-01], the fold induction at 0.5 µM in experiment [1] (0.5 uM, read-out: Burkin Assay in Myotubes (signal relative to DMSO)) is 0.965; in experiment [3] (0.5 uM, read-out: Burkin Assay in Myoblasts, value relative to DMSO) it was 1.1. For the same compound, the fold induction at 1 µM in experiment [1] (1 uM, read-out: Burkin Assay in Myotubes (signal relative to DMSO)) came to 1.13; in experiment [3] (1 uM, read-out: Burkin Assay in Myoblasts, value relative to DMSO) it was 1.34. The fold induction at 5 µM was 1.05 in experiment [1] (5 uM, read-out: Burkin Assay in Myotubes (signal relative to DMSO)); 0.991 in experiment [2]; 1.19 in experiment [3] (5 uM, read-out: Burkin Assay in Myoblasts, value relative to DMSO). Moreover, the fold induction at 10 µM in experiment [1] (10 uM, read-out: Burkin Assay in Myotubes (signal relative to DMSO)) came to 0.913; in experiment [2], 1.05; in experiment [3] (10 uM, read-out: Burkin Assay in Myoblasts, value relative to DMSO) it was 1.38. Also, the fold induction at 20 µM is 1.08 in experiment [1] (20 uM, read-out: Burkin Assay in Myotubes (signal relative to DMSO)); 0.85 in experiment [2]; 1.09 in experiment [3] (20 uM, read-out: Burkin Assay in Myoblasts, value relative to DMSO). In addition, the fold induction at 40 µM in experiment [1] (40 uM, read-out: Burkin Assay in Myotubes (signal relative to DMSO)) is 0.849; in experiment [2] it was 0.463; in experiment [3] (40 uM, read-out: Burkin Assay in Myoblasts, value relative to DMSO), 1.13.

Turning to `Cc1ccc(OCC(=O)N2CCN(S(=O)(=O)c3ccc4c(c3)OCCO4)CC2)c(C)c1` [MLS002158881-01], the fold induction at 0.5 µM in experiment [1] (0.5 uM, read-out: Burkin Assay in Myotubes, α7 integrin LacZ reporter signal relative to DMSO) was determined as 0.896; in experiment [3] (0.5 uM, read-out: Burkin Assay in Myoblasts, signal relative to DMSO) it was 0.888. The fold induction at 1 µM in experiment [1] (1 uM, read-out: Burkin Assay in Myotubes, α7 integrin LacZ reporter signal relative to DMSO) worked out at 0.865; in experiment [3] (1 uM, read-out: Burkin Assay in Myoblasts, signal relative to DMSO), 0.838. Besides, the fold induction at 5 µM in experiment [1] (5 uM, read-out: Burkin Assay in Myotubes, α7 integrin LacZ reporter signal relative to DMSO) was determined as 0.67; in experiment [2] it was 0.792; in experiment [3] (5 uM, read-out: Burkin Assay in Myoblasts, signal relative to DMSO), 0.989. The fold induction at 10 µM in experiment [1] (10 uM, read-out: Burkin Assay in Myotubes, α7 integrin LacZ reporter signal relative to DMSO) came out at 0.773; in experiment [2] it was 0.827; in experiment [3] (10 uM, read-out: Burkin Assay in Myoblasts, signal relative to DMSO), 1.02. In addition, the fold induction at 20 µM worked out at 1.2 in experiment [1] (20 uM, read-out: Burkin Assay in Myotubes, α7 integrin LacZ reporter signal relative to DMSO); 0.864 in experiment [2]; 1.12 in experiment [3] (20 uM, read-out: Burkin Assay in Myoblasts, signal relative to DMSO). For the same compound, the fold induction at 40 µM in experiment [1] (40 uM, read-out: Burkin Assay in Myotubes, α7 integrin LacZ reporter signal relative to DMSO) stood at 1; in experiment [2] it was 0.81; in experiment [3] (40 uM, read-out: Burkin Assay in Myoblasts, signal relative to DMSO) it was 1.21.

As for `CCOc1cc(/C=C2\C(=O)ON=C2c2ccccc2)ccc1OC` [MLS001196946-01], the “Burkin Assay in Myotubes (signal relative to DMSO)” value turned out to be 0.9942 in experiment [1] (0.5 uM); 1.113 in experiment [1] (1 uM); 1.002 in experiment [1] (5 uM); 0.9469 in experiment [1] (10 uM); 0.5465 in experiment [1] (20 uM); 0.2832 in experiment [1] (40 uM). Also, the “CMV-LACZ in Myotubes (β-galactosidase activity relative to DMSO)” value in experiment [2] (5 uM) was 0.9817; in experiment [2] (10 uM) it was 1.13; in experiment [2] (20 uM) it was 2.7886; in experiment [2] (40 uM) it was 3.9614. Moreover, the “Burkin Assay in Myoblasts, value relative to DMSO” value in experiment [3] (0.5 uM) was 0.9541; in experiment [3] (1 uM), 0.9798; in experiment [3] (5 uM), 0.7989; in experiment [3] (10 uM) it was 0.6188; in experiment [3] (20 uM), 0.1194; in experiment [3] (40 uM), 0.08385.

Consider `O=C(NC1CCCC1)c1ccc(CS(=O)(=O)Cc2ccccc2F)o1` [MLS001030746-01], for which the “Burkin Assay in Myotubes (signal relative to DMSO)” value turned out to be 1.047 in experiment [1] (0.5 uM); 0.9692 in experiment [1] (1 uM); 1.031 in experiment [1] (5 uM); 0.9496 in experiment [1] (10 uM); 0.9886 in experiment [1] (20 uM); 1.067 in experiment [1] (40 uM). Moreover, the “CMV-LACZ in Myotubes (β-galactosidase activity relative to DMSO)” value is reported as 0.9791 in experiment [2] (5 uM), 0.8757 in experiment [2] (10 uM), 1.098 in experiment [2] (20 uM) and 0.9912 in experiment [2] (40 uM). Also, the “Burkin Assay in Myoblasts, value relative to DMSO” value in experiment [3] (0.5 uM) came to 0.9195; in experiment [3] (1 uM) it was 0.8373; in experiment [3] (5 uM), 1.069; in experiment [3] (10 uM) it was 1.073; in experiment [3] (20 uM), 0.9338; in experiment [3] (40 uM) it was 0.9637.

As to `Cc1ccc(N(CCC(=O)O)S(=O)(=O)c2cccc(C(F)(F)F)c2)cc1` [MLS000775793-01], the “Burkin Assay in Myotubes (signal relative to DMSO)” value worked out at 0.9391 in experiment [1] (0.5 uM); 0.8833 in experiment [1] (1 uM); 0.8722 in experiment [1] (5 uM); 0.6224 in experiment [1] (10 uM); 0.9965 in experiment [1] (20 uM); 0.9508 in experiment [1] (40 uM). The “CMV-LACZ in Myotubes, signal relative to DMSO” value in experiment [2] (5 uM) is on record as 0.855; in experiment [2] (10 uM), 1.012; in experiment [2] (20 uM), 0.9323; in experiment [2] (40 uM) it was 1.021. Besides, the “Burkin Assay in Myoblasts, value relative to DMSO” value was found to be 1.103 in experiment [3] (0.5 uM); 1.076 in experiment [3] (1 uM); 1.109 in experiment [3] (5 uM); 1.076 in experiment [3] (10 uM); 0.9292 in experiment [3] (20 uM); 0.9895 in experiment [3] (40 uM).

For `CS(=O)(=O)N(Cc1ccc(C(=O)NC2CCCC2)cc1)c1ccccc1` [MLS000714175-01], the “Burkin Assay in Myotubes (signal relative to DMSO)” value in experiment [1] (0.5 uM) worked out at 1.086; in experiment [1] (1 uM) it was 1.061; in experiment [1] (5 uM) it was 1.131; in experiment [1] (10 uM), 1.013; in experiment [1] (20 uM), 1.119; in experiment [1] (40 uM), 1.022. For the same compound, the “CMV-LACZ in Myotubes (β-galactosidase activity relative to DMSO)” value in experiment [2] (5 uM) was found to be 0.9319; in experiment [2] (10 uM) it was 1.097; in experiment [2] (20 uM), 1.124; in experiment [2] (40 uM), 0.971. Besides, the “Burkin Assay in Myoblasts, value relative to DMSO” value in experiment [3] (0.5 uM) amounted to 0.5383; in experiment [3] (1 uM) it was 0.975; in experiment [3] (5 uM) it was 1.1625; in experiment [3] (10 uM) it was 1.06; in experiment [3] (20 uM), 0.9936; in experiment [3] (40 uM), 0.9626.
